Source: ChEMBL document CHEMBL4270590, “Azulene-based compounds for targeting orexin receptors” (Eur J Med Chem, 2018)
Active and inactive are the calls of the source. The calls are words filed in the database; no cut-off is given here.

Key:
[1] = biological target: T1, Orexin/Hypocretin receptor type 1 (Homo sapiens) (UniProt O43613); assay: Agonist activity at human OX1 receptor expressed in CHOK1 cells assessed as increase in calcium accumulation at 10 uM incubated for 30 mins measured for 150 secs by calcium-4 dye based FLIPR assay relative to orexin-A; assay type: functional, cell-based
T1 sequence (whole entry): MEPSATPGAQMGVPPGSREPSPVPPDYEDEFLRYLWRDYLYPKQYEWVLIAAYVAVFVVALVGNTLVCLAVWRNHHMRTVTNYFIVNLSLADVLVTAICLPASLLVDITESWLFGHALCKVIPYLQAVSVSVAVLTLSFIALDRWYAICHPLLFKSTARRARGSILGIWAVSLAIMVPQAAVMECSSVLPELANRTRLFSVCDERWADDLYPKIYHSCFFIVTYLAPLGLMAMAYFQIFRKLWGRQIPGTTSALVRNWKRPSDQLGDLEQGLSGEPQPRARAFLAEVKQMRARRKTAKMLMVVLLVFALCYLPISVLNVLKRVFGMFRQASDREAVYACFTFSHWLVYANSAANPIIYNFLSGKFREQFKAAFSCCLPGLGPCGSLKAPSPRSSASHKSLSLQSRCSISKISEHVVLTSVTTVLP

[2] = biological target: T2, Orexin receptor type 2 (Homo sapiens) (UniProt O43614); assay: Agonist activity at human OX2 receptor expressed in CHOK1 cells assessed as increase in calcium accumulation at 10 uM incubated for 30 mins measured for 150 secs by calcium-4 dye based FLIPR assay relative to orexin-A; assay type: functional, cell-based
T2 sequence (whole entry): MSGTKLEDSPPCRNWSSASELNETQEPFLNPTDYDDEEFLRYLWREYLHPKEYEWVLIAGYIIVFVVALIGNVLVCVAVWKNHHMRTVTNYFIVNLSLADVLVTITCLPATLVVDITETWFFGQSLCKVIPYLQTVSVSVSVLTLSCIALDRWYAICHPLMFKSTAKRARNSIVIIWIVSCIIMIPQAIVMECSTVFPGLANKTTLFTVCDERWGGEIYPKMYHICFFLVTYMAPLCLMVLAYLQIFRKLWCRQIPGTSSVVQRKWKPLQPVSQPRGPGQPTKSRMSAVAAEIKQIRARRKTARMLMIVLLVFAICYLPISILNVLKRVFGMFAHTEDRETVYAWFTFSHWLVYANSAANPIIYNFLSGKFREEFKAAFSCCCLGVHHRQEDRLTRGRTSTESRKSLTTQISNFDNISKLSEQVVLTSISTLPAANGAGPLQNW

[3] = biological target: T2, Orexin receptor type 2 (Homo sapiens); assay: Displacement of [125I]-orexin-A from human OX2 receptor expressed in CHOK1 cells at 10 uM incubated for 10 mins and measured after 90 mins by liquid scintillation counting method relative to control; assay type: cell-based
[4] = biological target: T1, Orexin/Hypocretin receptor type 1 (Homo sapiens); assay: Displacement of [125I]-orexin-A from human OX1 receptor expressed in CHOK1 cells at 10 uM incubated for 10 mins and measured after 90 mins by liquid scintillation counting method relative to control; assay type: cell-based
[5] = biological target: T2, Orexin receptor type 2 (Homo sapiens); assay: Allosteric agonist activity at human OX2 receptor expressed in CHOK1 cells assessed as potentiation of orexin-A induced calcium accumulation at 10 uM preincubated for 30 mins followed by orexin-A addition and measured for 150 secs by calcium-4 dye based FLIPR assay relative to control; assay type: functional, cell-based
[6] = biological target: T1, Orexin/Hypocretin receptor type 1 (Homo sapiens); assay: Allosteric agonist activity at human OX1 receptor expressed in CHOK1 cells assessed as potentiation of orexin-A induced calcium accumulation at 10 uM preincubated for 30 mins followed by orexin-A addition and measured for 150 secs by calcium-4 dye based FLIPR assay relative to control; assay type: functional, cell-based
[7] = test system: CHO-K1; assay: Effect on ATP-induced intracellular calcium accumulation in CHOK1 cells expressing human OXR at 10 uM incubated for 30 mins and measured for 150 secs by calcium-4 dye based FLIPR assay; assay type: functional, cell-based; details: Cricetulus griseus
[8] = biological target: T1, Orexin/Hypocretin receptor type 1 (Homo sapiens); assay: Agonist activity at human OX1 receptor expressed in CHOK1 cells assessed as increase in calcium accumulation at 10 uM incubated for 30 mins measured for 150 secs in presence of OX1R antagonist SB-334867 by calcium-4 dye based FLIPR assay; assay type: functional, cell-based
[9] = biological target: T2, Orexin receptor type 2 (Homo sapiens); assay: Agonist activity at human OX2 receptor expressed in CHOK1 cells assessed as increase in calcium accumulation at 10 uM incubated for 30 mins measured for 150 secs in presence of OX2R antagonist TCS-1102 by calcium-4 dye based FLIPR assay; assay type: functional, cell-based
[10] = Colloidal aggregating behavior of the compound at 1 to 30 uM by nephelometric method; assay type: physicochemical
[11] = biological target: T3, Orexin/Hypocretin receptor type 1 (Homo sapiens, UniProt O43613); assay: Antagonist activity at human OX1 receptor expressed in CHOK1 cells assessed as inhibition of orexin-A-induced calcium accumulation preincubated for 30 mins followed by orexin-A addition measured for 150 secs by calcium-4 dye based FLIPR assay; assay type: functional, cell-based; details: read-out: Ki(app)
T3 sequence (O43613 whole entry): T1 sequence (whole entry)

[12] = biological target: T4, Orexin receptor type 2 (Homo sapiens, UniProt O43614); assay: Antagonist activity at human OX2 receptor expressed in CHOK1 cells assessed as inhibition of orexin-A-induced calcium accumulation preincubated for 30 mins followed by orexin-A addition measured for 150 secs by calcium-4 dye based FLIPR assay; assay type: functional, cell-based; details: read-out: Ki(app)
T4 sequence (O43614 whole entry): T2 sequence (whole entry)

[13] = biological target: T1, Orexin/Hypocretin receptor type 1 (Homo sapiens); assay: Allosteric agonist activity at human OX1 receptor expressed in CHOK1 cells assessed as potentiation of orexin-A induced calcium accumulation preincubated for 30 mins followed by orexin-A addition and measured for 150 secs by calcium-4 dye based FLIPR assay; assay type: functional, cell-based
[14] = Solubility of the compound in water; assay type: physicochemical; details: buffer
[15] = biological target: T2, Orexin receptor type 2 (Homo sapiens); assay: Allosteric agonist activity at human OX2 receptor expressed in CHOK1 cells assessed as potentiation of orexin-A induced calcium accumulation preincubated for 30 mins followed by orexin-A addition and measured for 150 secs by calcium-4 dye based FLIPR assay; assay type: functional, cell-based

Emax [1]	Emax [2]	inhibition [3]	inhibition [4]	fold change (FC) [5]	fold change (FC) [6]	Compound	Activity [7]	other results
0.08%	-3.3%	34.3%	0.1%	–	–	O=C(Oc1ccc2ccc(Cl)ccc1-2)c1ccccc1	–	–
0.42%	1.32%	18%	13.6%	–	–	NC(=O)c1ccc2ccc(C(=O)c3ccccc3)c-2cc1	–	–
-1.38%	-3.18%	26.4%	18.3%	–	–	O=C(O)c1cccc2c(C(=O)c3ccccc3)cc(C(=O)c3ccc(C(F)(F)F)cc3)c-2c1	–	–
0.28%	0.05%	–	–	1.06	1.68	COC(=O)Cc1ccc2c(C(=O)c3ccccc3)cc(C(=O)c3ccccc3)c-2cc1	inactive	–
1.49%	-0.24%	19.1%	8.4%	–	–	CCOc1ccc(-c2cc(C(=O)c3ccccc3)c3ccc(C(=O)OC)ccc2-3)cc1	–	–
-1.39%	-2.09%	27%	–	0.75	1.42	O=C(O)c1ccc2c(C(=O)c3ccccc3)cc(C(=O)c3ccccc3)c-2cc1	inactive	–
6.13%	12.4%	–	–	0.86	1.59	COC(=O)c1ccc2ccc(C(=O)c3ccc(C(F)(F)F)cc3)c-2cc1	inactive	Activity [8]: inactive; Activity [9]: inactive
0.8%	-0.27%	1.8%	8.5%	–	–	COC(=O)c1ccc2c(C=O)cc(-c3ccccc3)c-2cc1	–	–
4.15%	4.92%	28.9%	7.2%	0.79	1.64	COC(=O)c1ccc2ccc(C(=O)c3ccccc3)c-2cc1	inactive	–
0.69%	-0.14%	27%	10.4%	–	–	COC(=O)c1cccc2c(C(=O)c3ccccc3)cc(C(=O)c3ccc(C(F)(F)F)cc3)c-2c1	–	–
0.64%	1.71%	16.7%	6.1%	–	–	NC(=O)c1ccc2c(C=O)cc(-c3ccccc3)c-2cc1	–	–
0.69%	-0.14%	27%	10.4%	–	–	COC(=O)c1cccc2c(C(=O)c3ccccc3)cc(C(=O)c3ccc(C(Cl)(Cl)Cl)cc3)c-2c1	–	–
5.01%	11%	-4.3%	–	0.97	1.86	COC(=O)Cc1ccc2ccc(C(=O)c3ccccc3)c-2cc1	inactive	Activity [8]: inactive; Activity [9]: inactive
-1.38%	-3.18%	25.6%	19.9%	–	–	O=C(O)c1cccc2c(C(=O)c3ccccc3)cc(C(=O)c3ccc(C(Cl)(Cl)Cl)cc3)c-2c1	–	–
0.8%	-0.21%	21.5%	16.2%	–	–	O=Cc1cc(-c2ccccc2)c2ccc(C(=O)O)ccc1-2	–	–
2.16%	2.29%	32.9%	11%	0.98	1.52	O=C(O)c1ccc2ccc(C(=O)c3ccccc3)c-2cc1	inactive	–
1.17%	-0.25%	-5.4%	–	1.02	1.99	COC(=O)c1ccc2c(I)cc(C(=O)c3ccccc3)c-2cc1	inactive	Activity [13]: Dose-dependent effect; solubility [14]: Insoluble; Activity [15]: Dose-dependent effect
-0.56%	-1.51%	–	–	0.88	1.97	COC(=O)c1ccc2c(C(=O)c3ccccc3)cc(C(=O)c3ccccc3)c-2cc1	inactive	Activity [13]: Dose-dependent effect; solubility [14]: Insoluble; Activity [15]: Dose-dependent effect

Continued, molecule first:

Compound	Emax [1]	Emax [2]	inhibition [3]	inhibition [4]	fold change (FC) [5]	fold change (FC) [6]	Activity [7]	other results
O=C(O)Cc1ccc2ccc(C(=O)c3ccc(C(F)(F)F)cc3)c-2cc1	0.22%	-1.06%	11.2%	8.6%	0.98	1.5	inactive	–
CC(C)(C)OC(=O)NCC(=O)Oc1ccc2ccc(Cl)ccc1-2	1.62%	-1.01%	36%	-4.5%	–	–	–	–
COC(=O)c1cc(C=O)c2ccc(/C=C/c3cnc[nH]3)ccc1-2	2.35%	0.4%	39.9%	23%	–	–	–	–
COC(=O)c1ccc2ccc(C=O)c-2cc1	3.06%	2.26%	37.2%	25%	–	–	–	–
O=C(Oc1ccc2ccc(Cl)ccc1-2)c1cccnc1	0.6%	-2.65%	32.3%	-2.4%	–	–	–	–
COC(=O)CCC(=O)Oc1ccc2ccc(Cl)ccc1-2	0.73%	-2.13%	24.3%	8%	–	–	–	–
CCOc1ccc(-c2cc(C(=O)c3ccccc3)c3ccc(C(=O)O)ccc2-3)cc1	-0.17%	-0.99%	–	–	0.76	1.01	inactive	Activity [10]: Not Active; Ki [11]: 3.1 to 7.5 µM; Ki [12]: 3.2 to 4.9 µM
O=C(OCc1ccccc1)Oc1ccc2ccc(Cl)ccc1-2	0.46%	-2.71%	35.6%	18.2%	–	–	–	–
O=C(O)c1ccc2ccc(C(=O)c3ccc(C(F)(F)F)cc3)c-2cc1	1.09%	2.96%	1%	–	0.9	1.53	inactive	–
O=Cc1ccc2ccc(C(=O)O)ccc1-2	1.75%	3.47%	44.1%	37.8%	–	–	–	–
COC(=O)c1cc(CN2CCOCC2)c2ccc(Cl)ccc1-2	0.42%	-0.98%	46.7%	24.5%	–	–	–	Activity [10]: Not Active; Ki [11]: 5.4 to 7.6 µM; Ki [12]: 4.3 to 8.6 µM
O=C(Oc1ccc2ccc(Cl)ccc1-2)c1cccs1	0.91%	-2.7%	33.2%	9.8%	–	–	–	–
Cc1ccc2ccc(C(=O)c3ccc(C(F)(F)F)cc3)c-2cc1	0.61%	-0.44%	31%	38.3%	–	–	–	–
